Laboratory results reported in patent US12077503B2, “Substituted cyclic amides and their use as herbicides” (FMC CORPORATION, priority 2015, dated 2024).

Tests used:
Assay type in all cases: in vivo
[1] = test system: ragweed (common ragweed, Ambrosia elatior); experiment: Test A preemergence; conditions: Preemergence; for Plant response rating, Ragweed: 125 g ai/ha, visual injury after approximately 10 d, 0 to 100 scale where 0 is no effect and 100 is complete control; for Ragweed plant response rating (0 to 100 scale, 0 is no effect, 100 is complete control): 500 g ai/ha, visual injury approx. 10 d
How it was run: (§1)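 Ratings of 0 (no effect) to 100 (complete control) come from visual comparison with untreated controls roughly 10 d after treatment. Test chemicals, formulated in a non-phytotoxic solvent mixture with surfactant, were applied either as a preemergence directed soil spray on seeded soil or postemergence to one- to two-leaf plants 2 to 10 cm tall.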

Kochia (Kochia scoparia) [2] = experiment: Test A preemergence; conditions: for Plant response rating, Kochia: 125 g ai/ha; for Kochia plant response rating (0 to 100 scale, 0 is no effect, 100 is complete control): 500 g ai/ha, visual injury approx. 10 d
How it was run: as §1

[3] = test system: giant foxtail (Setaria faberii); experiment: Test A preemergence; conditions: for Plant response rating, Foxtail, Giant: 125 g ai/ha; for Foxtail, Giant plant response rating (0 to 100 scale, 0 is no effect, 100 is complete control): 500 g ai/ha, visual injury approx. 10 d
How it was run: as §1

[4] = test system: pigweed (Amaranthus retroflexus); experiment: Test A preemergence; conditions: Preemergence; for Plant response rating, Pigweed: 125 g ai/ha, visual injury after approximately 10 d, 0 to 100 scale where 0 is no effect and 100 is complete control; for Pigweed plant response rating (0 to 100 scale, 0 is no effect, 100 is complete control): 500 g ai/ha, visual injury approx. 10 d
[5] = test system: ryegrass, Italian (Italian ryegrass, Lolium multiflorum); experiment: Test A preemergence; conditions: Preemergence; for Plant response rating, Ryegrass, Italian: 125 g ai/ha, visual injury after approximately 10 d, 0 to 100 scale where 0 is no effect and 100 is complete control; for Ryegrass, Italian plant response rating (0 to 100 scale, 0 is no effect, 100 is complete control): 500 g ai/ha, visual injury approx. 10 d
How it was run: as §1

[6] = test system: barnyardgrass (Echinochloa crus-galli); experiment: Test A preemergence; conditions: for Plant response rating, Barnyardgrass: 125 g ai/ha; for Barnyardgrass plant response rating (0 to 100 scale, 0 is no effect, 100 is complete control): 500 g ai/ha, visual injury approx. 10 d
How it was run: as §1

[7] = test system: ragweed (common ragweed, Ambrosia elatior); experiment: Test A postemergence
How it was run: as §1

Kochia (Kochia scoparia) [8] = experiment: Test A postemergence
How it was run: as §1

[9] = test system: giant foxtail (Setaria faberii); experiment: Test A postemergence
How it was run: as §1

[10] = test system: wheat (Triticum aestivum); experiment: Test A postemergence
How it was run: as §1

[11] = test system: pigweed (Amaranthus retroflexus); experiment: Test A postemergence
How it was run: as §1

[12] = test system: ryegrass, Italian (Italian ryegrass, Lolium multiflorum); experiment: Test A postemergence
How it was run: as §1

[13] = test system: barnyardgrass (Echinochloa crus-galli); experiment: Test A postemergence; conditions: for Barnyardgrass plant response rating: 125 g ai/ha, visual injury rating on 0 to 100 scale (0 no effect, 100 complete control), approx. 10 d; for Plant response rating, Barnyardgrass: 500 g ai/ha
How it was run: as §1

[14] = test system: Galium (catchweed bedstraw, Galium aparine); experiment: Test A postemergence
How it was run: as §1

corn (Zea mays) = experiment: Test A postemergence
How it was run: as §1

[15] = test system: blackgrass (Alopecurus myosuroides); experiment: Test A postemergence; conditions: for Blackgrass plant response rating: 125 g ai/ha, visual injury rating on 0 to 100 scale (0 no effect, 100 complete control), approx. 10 d; for Plant response rating, Blackgrass: 500 g ai/ha
How it was run: as §1

[16] = test system: sedge, umbrella (small-flower umbrella sedge, Cyperus difformis); experiment: Test B flooded paddy test; conditions: Flood, 0 to 100 scale where 0 is no effect and 100 is complete control, 13 to 15 d
How it was run: (§2)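 Rating scale 0–100 (visual, vs untreated controls) after a 13–15 d greenhouse period; application to the flood layer, 3 cm above soil and maintained; plants at 2-leaf stage when treated.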

rice (Oryra sativa) = experiment: Test B flooded paddy test; conditions: Flood, 0 to 100 scale where 0 is no effect and 100 is complete control, 13 to 15 d
How it was run: as §2

[17] = test system: ducksalad (Heteranthera limosa); experiment: Test B flooded paddy test; conditions: Flood, 0 to 100 scale where 0 is no effect and 100 is complete control, 13 to 15 d
How it was run: as §2

[18] = test system: barnyardgrass (Echinochloa crus-galli); experiment: Test B flooded paddy test; conditions: Flood, 0 to 100 scale where 0 is no effect and 100 is complete control, 13 to 15 d
How it was run: as §2

[19] = Preemergence, visual injury after approximately 10 d, 0 to 100 scale where 0 is no effect and 100 is complete control
[20] = 125 g ai/ha, postemergence, visual rating after approx. 10 d, 0 to 100 scale (0 no effect, 100 complete control)
[21] = Postemergence, 500 g ai/ha, 0 to 100 scale where 0 is no effect and 100 is complete control
[22] = Postemergence, 0 to 100 scale where 0 is no effect and 100 is complete control
[23] = preemergence, 0 to 100 scale (0 no effect, 100 complete control)
[24] = 125 g ai/ha, postemergence, visual injury rating on 0 to 100 scale (0 no effect, 100 complete control), approx. 10 d
[25] = postemergence, 0 to 100 scale, 0 no effect, 100 complete control

SMILES: O=C1NCC(c2ccc(Oc3ccccc3)cc2)C1C(=O)Nc1ccccc1F (racemic) [Compound 534]
- Plant response rating, Ragweed [1]: 0
- Ragweed plant response rating (0 to 100 scale, 0 is no effect, 100 is complete control) [1]: 0
- Plant response rating, Kochia (Kochia (Kochia scoparia) [2]; [19]): 0
- Kochia plant response rating (0 to 100 scale, 0 is no effect, 100 is complete control) (Kochia (Kochia scoparia) [2]; Preemergence): 0
- Plant response rating, Foxtail, Giant [3, 19]: 0
- Foxtail, Giant plant response rating (0 to 100 scale, 0 is no effect, 100 is complete control) ([3]; Preemergence): 0
- Plant response rating, Pigweed [4]: 0
- Pigweed plant response rating (0 to 100 scale, 0 is no effect, 100 is complete control) [4]: 0
- Plant response rating, Ryegrass, Italian [5]: 0
- Ryegrass, Italian plant response rating (0 to 100 scale, 0 is no effect, 100 is complete control) [5]: 0
- Plant response rating, Barnyardgrass [6, 19]: 0
- Barnyardgrass plant response rating (0 to 100 scale, 0 is no effect, 100 is complete control) ([6]; Preemergence): 0
- Plant response rating, Ragweed [7, 20]: 0
- Plant response rating, Ragweed [7, 21]: 0
- Plant response rating, Kochia (Kochia (Kochia scoparia) [8]; [20]): 0
- Plant response rating, Kochia (Kochia (Kochia scoparia) [8]; [21]): 0
- Plant response rating, Foxtail, Giant [9, 20]: 0
- Plant response rating, Foxtail, Giant [9, 21]: 0
- Plant response rating, Wheat [10, 20]: 0
- Plant response rating, Wheat [10, 21]: 0
- Plant response rating, Pigweed [11, 20]: 0
- Plant response rating, Pigweed [11, 21]: 0
- Plant response rating, Ryegrass, Italian [12, 20]: 0
- Plant response rating, Ryegrass, Italian [12, 21]: 0
- Barnyardgrass plant response rating ([13]; postemergence): 0
- Plant response rating, Barnyardgrass [13, 22]: 0
- Plant response rating, Galium [14, 20]: 0
- Plant response rating, Galium [14, 21]: 0
- Plant response rating, Corn (corn (Zea mays); [20]): 0
- Plant response rating, Corn (corn (Zea mays); [21]): 0
- Blackgrass plant response rating ([15]; postemergence): 0
- Plant response rating, Blackgrass [15, 22]: 0
- Plant response rating, Sedge, Umbrella ([16]; 500 g ai/ha): 0
- Plant response rating, Rice (rice (Oryra sativa); 500 g ai/ha): 20
- Plant response rating, Ducksalad ([17]; 500 g ai/ha): 0
- Plant response rating, Barnyardgrass ([18]; 500 g ai/ha): 0

SMILES: CC(C)c1ccc(C2CNC(=O)C2C(=O)Nc2ccccc2F)cc1 (stereo not drawn) [Compound 469]
- Plant response rating, Ragweed [1]: 0
- Ragweed plant response rating (0 to 100 scale, 0 is no effect, 100 is complete control) [1]: 0
- Plant response rating, Kochia (Kochia (Kochia scoparia) [2]; [23]): 0
- Kochia plant response rating (0 to 100 scale, 0 is no effect, 100 is complete control) (Kochia (Kochia scoparia) [2]; Preemergence): 0
- Plant response rating, Foxtail, Giant [3, 23]: 80
- Foxtail, Giant plant response rating (0 to 100 scale, 0 is no effect, 100 is complete control) ([3]; Preemergence): 90
- Plant response rating, Pigweed [4]: 0
- Pigweed plant response rating (0 to 100 scale, 0 is no effect, 100 is complete control) [4]: 0
- Plant response rating, Ryegrass, Italian [5]: 0
- Ryegrass, Italian plant response rating (0 to 100 scale, 0 is no effect, 100 is complete control) [5]: 0
- Plant response rating, Barnyardgrass [6, 23]: 80
- Barnyardgrass plant response rating (0 to 100 scale, 0 is no effect, 100 is complete control) ([6]; Preemergence): 90
- Ragweed plant response rating [7, 24]: 0
- Plant response rating, Ragweed [7, 21]: 0
- Kochia plant response rating (Kochia (Kochia scoparia) [8]; [24]): 0
- Plant response rating, Kochia (Kochia (Kochia scoparia) [8]; [21]): 0
- Foxtail, Giant plant response rating [9, 24]: 20
- Plant response rating, Foxtail, Giant [9, 21]: 60
- Wheat plant response rating [10, 24]: 0
- Plant response rating, Wheat [10, 21]: 0
- Pigweed plant response rating [11, 24]: 0
- Plant response rating, Pigweed [11, 21]: 0
- Ryegrass, Italian plant response rating [12, 24]: 0
- Plant response rating, Ryegrass, Italian [12, 21]: 20
- Barnyardgrass plant response rating ([13]; postemergence): 70
- Plant response rating, Barnyardgrass [13, 25]: 80
- Galium plant response rating [14, 24]: 0
- Plant response rating, Galium [14, 21]: 0
- Corn plant response rating (corn (Zea mays); [24]): 0
- Plant response rating, Corn (corn (Zea mays); 500 g ai/ha, postemergence, 0 to 100 scale, 0 no effect, 100 complete control): 0
- Blackgrass plant response rating ([15]; postemergence): 0
- Plant response rating, Blackgrass [15, 25]: 40
- Plant response rating, Sedge, Umbrella ([16]; 250 g ai/ha): 0
- Plant response rating, Rice (rice (Oryra sativa); 250 g ai/ha): 0
- Plant response rating, Ducksalad ([17]; 250 g ai/ha): 70
- Plant response rating, Barnyardgrass ([18]; 250 g ai/ha): 40
